The METLIN SMRT retention time set (Domingo-Almenara et al. 2019)

Test: gradient 5% acetonitrile 3 min, to 50% in 2 min, to 85% in 15 min, held 3 min, 100 µL/min
Settings: column: Zorbax Extend-C18 2.1 x 50 mm; eluents: water / acetonitrile, 0.1% formic acid
Procedure, shortened: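 A Zorbax Extend-C18 column (2.1 × 50 mm, 1.8 μm) run at 100 μL/min with water and acetonitrile, both containing 0.1% formic acid, separated mixtures of ~100 pure standards. The HPLC was coupled to a quadrupole time-of-flight mass spectrometer operated in positive and negative ionization mode, with dead and dwell volumes of 40 μL and 900 μL. Each retention time was taken from a computationally picked adduct peak that was then manually inspected.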

RP-LC retention time | SMILES
855 s | Cc1cc(C2CCCN2C(=O)c2cnn3c(C(F)(F)F)cc(-c4ccco4)nc23)on1 (stereo not drawn)
596 s | CCc1ccc(C2=C(C)C(N3CCC(NC(=O)NC(C)C)CC3)=NS2(=O)=O)cc1
811 s | CCNC(=O)c1nc(C(=O)NCc2ccc(C)cc2)cs1
865 s | COc1ccc(Cl)cc1C(=O)NC1CCN(c2cc(-c3cccs3)[nH]n2)CC1
1110 s | COc1cccc(-c2ccc(=O)n(Cc3nc(-c4ccc(Cl)cc4)no3)n2)c1
773 s | O=C(NCCn1c(=O)n(Cc2ccccc2)c2cccnc21)c1ccc2c(c1)OCO2
746 s | O=C(NCCCc1ccccc1)C(=O)NCc1n[nH]c(=O)c2ccccc12
759 s | Cc1nc(-c2ccc(N3CCN(C(=O)c4ccco4)CC3)nc2)sc1C
796 s | CCc1noc(NC(C)=O)c1-c1ccc(OC)c(S(=O)(=O)Nc2ccc(F)cc2C)c1
645 s | CCn1c(-c2nonc2N)nc2c(C#CC(C)(C)O)ncc(OC[C@H]3CCCNC3)c21
734 s | COc1ccc(N2CCN(c3nccc4ccc(C(=O)NC5CCCC5)cc34)CC2)cc1
775 s | CCOC(=O)C1CCN(C(=O)Cn2c3ccccc3c3cnn(C)c(=O)c32)CC1
698 s | O=C(c1ccoc1)N1CCN(c2cc(-c3ccccc3)[nH]n2)CC1
1040 s | O=c1c2oc3ccccc3c2ncn1Cc1nc(-c2cccc(C(F)(F)F)c2)no1
793 s | COC(=O)Cn1c(C)cc(=O)n2nc(-c3ccc(Cl)cc3)nc12
661 s | O=C1NCCCn2cc(S(=O)(=O)N3CCCCCC3)cc21
965 s | Cc1c(C(=O)NC2CCCCC2)sc2ncn(CC(=O)N3CC(C)CC(C)C3)c(=O)c12 (stereo not drawn)
947 s | O=C1C(O)=C(S(=O)(=O)c2ccccc2)C(c2ccccc2)N1Cc1ccccc1 (stereo not drawn)
585 s | COCCN1C(=O)[C@H]2CN(Cc3ccc(F)cc3)C[C@H]2C1=O
737 s | O=C(Cn1nc(N2CCOCC2)c2ccccc2c1=O)Nc1ccc2c(c1)OCCO2
1240 s | N#Cc1ccc(-c2csc(NC(=O)c3sc4ccccc4c3Cl)n2)cc1
908 s | CCCCOc1ccc(C(=O)Nc2cc(C)no2)cc1
716 s | Clc1ccc(-c2ccc(CNC3CC3)o2)c(Cl)c1
850 s | O=C(NCc1cccc(Br)c1)c1csc(C(=O)N2CCCC2)n1
730 s | O=C(NC1CCCCCC1)C1CCCN(c2ccnc(-c3ccc(F)cc3)n2)C1 (stereo not drawn)
827 s | CCS(=O)(=O)N1CCCN(C2=NS(=O)(=O)C(c3ccc(C)cc3)=C2C)CC1

RP-LC retention time | SMILES
751 s | O=C(O)/C=C/C(=O)Nc1cccc2cccnc12
718 s | Cn1nc(C2CCCN(C(=O)Nc3ccc4c(c3)OCCO4)C2)n(C2CCCC2)c1=O (stereo not drawn)
999 s | O=C(Cn1cnc2c(sc3nc(-c4ccccc4)ccc32)c1=O)Nc1ccc(F)cc1F
626 s | CCCN1CCN(C(=O)c2csc(N3CCN(c4ccc(OC)cc4)CC3)n2)CC1
996 s | O=C(c1ccoc1)N1CCCC1c1nc(-c2cccc(C(F)(F)F)c2)no1 (stereo not drawn)
1120 s | COCCCn1c(=O)c2ccccc2n(Cc2nc(-c3ccc(C)c(C)c3)no2)c1=O
644 s | Cc1[nH]c(C)c(S(=O)(=O)N2CCC(C(=O)Nc3cc(F)ccc3F)CC2)c1C(=O)N1CCCC1
573 s | COc1ccc(S(=O)(=O)N2CCN(CCO)CC2)c2ccccc12
748 s | O=C(Nc1cnc(N2CCCC2)nc1)c1ccc(F)c(F)c1
736 s | CC(C)c1ccc(S(=O)(=O)N2CCC3(CCN(c4cccnc4)C3)C2)cc1 (stereo not drawn)
622 s | O=C(Cn1cnc2ccccc2c1=O)NCCn1nc(-c2cccs2)ccc1=O
684 s | CN(C)CCCNC(=O)c1cn(C)nc1S(=O)(=O)N1CCN(c2ccc(Cl)cc2)CC1
803 s | CCOC(=O)c1c(C)n(C)c2ccc(O)cc12
670 s | O=C1NC(=O)C2(CCc3ccccc32)N1 (stereo not drawn)
648 s | O=C(NC1CCCC1)C1CCCN(c2nnc3ccc(Cl)cn23)C1 (stereo not drawn)
1060 s | COc1cc(OC)cc(-c2nc(-c3nnn(Cc4ccccc4)c3C)no2)c1
1420 s | Cc1sc(-c2nc(C(C)C)cs2)cc1S(=O)(=O)N1CCN(c2ccccc2)CC1
897 s | CCOc1ccc2nc(C(=O)NC(CC)c3ccc(OC)cc3)cn2n1 (stereo not drawn)
974 s | Cc1cc(=O)n(CC(=O)Nc2ccc3c(c2)OCO3)c(-c2ccc(F)cc2)n1
648 s | COCCCNC(=O)Cn1ccc2c(SCc3ccc(C)cc3)nccc21
784 s | CCNc1nc(N(C)C)nc(-n2cnc(SC)n2)n1
599 s | O=C(C1CCN(c2nnc3ccc(Cl)cn23)CC1)N1CCOCC1
1230 s | Cc1c(C(=O)N2CCCC(C)C2)cnn1-c1ccc(-c2nc(C(C)(C)C)no2)cn1 (stereo not drawn)
826 s | Cc1noc(-c2cc(=O)n(CC(=O)NCc3ccccc3F)c3ccccc23)n1
632 s | CC(=O)Nc1ccc2cc3ccc(NC(C)=O)cc3nc2c1
842 s | COc1cccc(CC2C(=O)Nc3ccc(Br)cc32)c1OC (stereo not drawn)

More lines, now with the values behind:

SMILES | RP-LC retention time
CN1C(=O)CCCCC1C(=O)N1CCc2ccccc21 (stereo not drawn) | 721 s
Cn1c(=O)n(CC(=O)N2CCc3ccccc3C2)c(=O)c2cnc(-c3ccc(Cl)cc3)nc21 | 1140 s
CC(C)(Cc1c[nH]c2ccccc12)NCC(O)COc1ccccc1C#N (stereo not drawn) | 757 s
Cc1noc(-c2ccc(=O)n(CC(C)C)n2)n1 | 761 s
CC1CCN(S(=O)(=O)N2CCCC(C(=O)NCCCN3CCc4ccccc4C3)C2)CC1 (stereo not drawn) | 714 s
Cc1nc(-c2csc(S(=O)(=O)N3CCCC(C(=O)NCCc4ccccc4)C3)c2)no1 (stereo not drawn) | 901 s
O=C(NC1CCCCC1)C1CCCN(c2ncnc3c2oc2ccccc23)C1 (stereo not drawn) | 758 s
COc1ccc(-n2ccn(CC(=O)Nc3ccc(Br)cc3)c(=O)c2=O)cc1 | 728 s
COc1cccc(CNS(=O)(=O)c2cc(-c3cc(C(F)(F)F)on3)sc2C)c1 | 1120 s
COc1ccc(Cl)c2c(=O)c3c([nH]c12)CCN(CC(=O)Nc1cc(C)ccc1C)C3 | 649 s
CCCNc1cc(N2CCC(CCC(=O)Nc3cc(C)ccc3C)CC2)ncn1 | 608 s
CCCn1c(=O)c(C)nc2cc(-c3noc(Cc4cccc(F)c4)n3)ccc21 | 1090 s
CCn1c(CCc2ccccc2NS(=O)(=O)c2cccc3nsnc23)nc2ccccc21 | 713 s
COc1ccccc1-c1nnc(-c2ccc(C)c(S(=O)(=O)N(C)C)c2)o1 | 895 s
Cc1nn(-c2cc(N3CCCC3)ncn2)c(C)c1CCC(=O)Nc1ccc(F)cc1Cl | 791 s
Cc1ccc2c(=O)c(C(=O)N3CCCCC3)cn(CC(=O)Nc3ccccc3)c2n1 | 713 s
O=c1ccn(-c2cccc(F)c2)nc1-c1nc(-c2cccc(Cl)c2)no1 | 992 s
Cn1cc(-c2noc(-c3cccs3)n2)ccc1=O | 778 s

SMILES | RP-LC retention time
C[C@H]1CN(C(=O)c2ccc3ccccc3n2)C[C@@H]1c1nc(-c2cccnc2)no1 | 821 s
O=C(c1cccnc1)N1CCCn2nc(-c3ccc(Cl)cc3)cc2C1 | 739 s
Cn1nccc1-c1cccc(-c2noc(-c3ccccc3F)n2)c1 | 1070 s
CN1CCN(CCNC(=O)c2ccc3c(c2)nnn3Cc2ccc(F)cc2)CC1 | 591 s
Cc1nn(CCCC(=O)N2CCN(c3ccccn3)CC2)c(=O)c2cc3sccc3n12 | 587 s
COC(=O)c1ccc2c(=O)n(-c3ccccc3)c(N3CCC(C)CC3)nc2c1 | 1210 s
COc1ccc(Cn2nc3ccc(S(=O)(=O)N4CCCCC4)cn3c2=O)cc1 | 900 s
Cc1ccc(Nc2c(-c3ccc(Cl)cc3)nc3nc(C)cc(C)n23)cc1 | 827 s
CCn1cc(-c2nc(CC(=O)Nc3ccc(F)c(F)c3)cs2)c2cccnc21 | 961 s
Cc1nnc(N2CCCC(C(=O)NCc3ccc(F)cc3)C2)c2nn(-c3ccc(Cl)cc3)c(C)c12 (stereo not drawn) | 771 s
O=S(=O)(c1cc(-c2nnc(C3CC3)o2)co1)N1CCN(c2cccc(Cl)c2)CC1 | 1060 s
O=C(NCc1ccccc1Cl)c1nc(Cn2c(=O)oc3ccccc32)no1 | 946 s
O=C(Nc1ccccc1Cl)N1CCN(CCn2c(-c3ccncc3)nc3cccnc32)CC1 | 588 s
Cc1cc(C)c2nc(C)cc(C(=O)NCc3ccco3)c2c1 | 698 s
CCOC(=O)c1ccccc1NC(=O)Cn1c(=O)n(-c2ccc(C)cc2)c(=O)c2c1cc(C)n2C | 1060 s
COCCN1CC(CO)C2(CCN(Cc3ccc(OC)cc3OC)CC2)C1 (stereo not drawn) | 540 s
CCCCn1c(=O)c2c(nc3n2CCCCN3c2ccc(OCC)cc2)n(C)c1=O | 1050 s
CCCN1CCN(c2cc(C(=O)O)c3cc(NS(=O)(=O)c4ccc(C)cc4)ccc3n2)CC1 | 638 s
